Values of other authors as cited in patent US9206466B2, “Compositions and methods for regulating peptidyltransferase activity and uses thereof” (University of Maryland, priority 2004, dated 2015).

Key:
[1] = tested on: −1 PRF; conditions: yeast; Dinman et al., 1997
[2] = tested on: killer virus; conditions: yeast; Dinman et al., 1997

CSC[S@+]([O-])C[C@H](CO)NC(=O)/C=C/c1c(C)[nH]c(=O)[nH]c1=O [sparsomycin]
−1 PRF efficiencies [1]: promoted increased −1 PRF efficiencies
maintenance of the killer virus [2]: loss of the killer virus
